The source of these data is PMC11641208, “Advanced PROTAC and Quantitative Proteomics Strategy Reveals Bax Inhibitor-1 as a Critical Target of Icaritin in Burkitt Lymphoma” (International Journal of Molecular Sciences, 2024).

In general, Kd refers to the concentration at which binding is half-saturated. Read a high Kd as weaker binding.

The experiment addresses T1, Bax inhibitor-1 (BI-1) (Homo sapiens, UniProt P55061).
T1 construct: gene TMBIM6
As to the kind of experiment: SPR (Biacore T200, BI-1 immobilised on CM5 chip, kinetic […] fit). In kind it is binding. On the technique in general: In SPR one partner is held on a chip, and binding of the other changes the refractive index at the surface.

T1 sequence (P55061 whole entry): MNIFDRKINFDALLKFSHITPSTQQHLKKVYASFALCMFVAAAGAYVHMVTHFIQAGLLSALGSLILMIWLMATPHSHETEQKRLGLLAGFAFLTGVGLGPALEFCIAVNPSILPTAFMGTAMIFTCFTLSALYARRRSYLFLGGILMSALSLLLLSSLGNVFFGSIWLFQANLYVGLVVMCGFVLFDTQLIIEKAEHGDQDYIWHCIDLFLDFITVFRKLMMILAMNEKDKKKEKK

`C#CCOc1cc(O)c2c(=O)c(OCCOCCOCCOCC(=O)NCCCCCC(=O)Nc3cccc4c3CN(C3CCC(=O)NC3=O)C4=O)c(-c3ccc(OC)cc3)oc2c1CC=C(C)C` (stereo not shown) [compound 10, LJ-41] returned a Kd of 79.7 µM.
